Measured values taken from patent US20230399358A1, “IMMUNOGLOBULIN PURIFICATION PEPTIDES AND THEIR USE” (North Carolina State University, priority 2019, published 2023).
Non-standard residues stand in square brackets, D forms with d. No end group written: not given here. Cit = NC(=O)NCCC[C@H](N)C(=O)O; Nle = CCCC[C@H](N)C(=O)O

B1: MWRAWQ (SEQ ID NO:5) (peptide)
peptide: MWRAWQ
B2: MWRGFQ (SEQ ID NO:7) (peptide)
peptide: MWRGFQ
B3: GWRGWQ (SEQ ID NO:8) (peptide)
peptide: GWRGWQ
B4: (NorL)WRGWQ (SEQ ID NO:23) (peptide)
peptide: [Nle]WRGWQ
B5: MW(Cit)GWQ (SEQ ID NO:25) (peptide)
peptide: MW[Cit]GWQ
B6: MFRGWQ (SEQ ID NO:21) (peptide)
peptide: MFRGWQ
B7: MWRWQ (SEQ ID NO:6) (peptide)
peptide: MWRWQ
B8: MWRGGQ (SEQ ID NO:26) (peptide)
peptide: MWRGGQ
B9: MWRGWN (SEQ ID NO:22) (peptide)
peptide: MWRGWN
B10: WQRHGV (SEQ ID NO:10) (peptide)
peptide: WQRHGV
B11: WQRAGI (SEQ ID NO:28) (peptide)
peptide: WQRAGI
B12: WQRHGL (SEQ ID NO:9) (peptide)
peptide: WQRHGL
B13: WQRHAI (SEQ ID NO:11) (peptide)
peptide: WQRHAI
B14: WNRHGI (SEQ ID NO:12) (peptide)
peptide: WNRHGI
B15: WQRHI (SEQ ID NO:33) (peptide)
peptide: WQRHI
B16: FQRHGI (SEQ ID NO:29) (peptide)
peptide: FQRHGI
B17: WQ(Cit)HGI (SEQ ID NO:27) (peptide)
peptide: WQ[Cit]HGI

Tested on: human polyclonal IgG in CHO-S cell culture fluid
Experiment: Static purification of IgG from CHO cell culture supernatant on peptide-Toyopearl resins, SDS-PAGE densitometry
Details: Gel A, lane FT (flow-through)
Method: (§1) Measurement of IgG binding by peptide-based chromatographic adsorbents: For initial studies, 35 mg of MWRGWQ (SEQ ID NO:2)-Toyopearl, RHLGWF (SEQ ID NO:3)-Toyopearl, WQRHGI (SEQ ID NO:1)-Toyopearl, GWLHQR (SEQ ID NO:4)-Toyopearl, and HWRGWV (SEQ ID NO:18)-Toyopearl (control) resins were equilibrated in PBS pH 7.4, reaching a swollen volume of 0.1 mL, and subsequently incubated with 1 mg/mL IgG in 0.205 mg/mL CHO cell culture supernatant for 30 minutes. The resins were subsequently washed several times with PBS to remove non-specifically bound proteins. Elution was performed with 100 mM glycine buffer pH 2.5. Flowthrough and elution fractions were collected and analyzed by SDS PAGE under reducing conditions. The resulting gels were stained with Coomassie staining. Further, 25 mg of the adsorbents MWRGWQ (SEQ ID NO:2)-Toyopearl, NIFRGWQ (SEQ ID NO:21)-Toyopearl, MWRAWQ (SEQ ID NO:5)-Toyopearl, MWRGFQ (SEQ ID NO:7)-Toyopearl, MWRGWN (SEQ ID NO:22)-Toyopearl, (NorL) WRGWQ (SEQ ID NO:23)-Toyopearl, MGRGWQ (SEQ ID NO:24)-Toyopearl, MWRWQ (SEQ ID NO:6)-Toyopearl, MWRGGQ (SEQ ID NO:26)-Toyopearl, GWRGWQ (SEQ ID NO:8)-Toyopearl, WQRHGI (SEQ ID NO:1)-Toyopearl, WNRHGI (SEQ ID NO:12)-Toyopearl, WQRAGI (SEQ ID NO:28)-Toyopearl, WQRHAI (SEQ ID NO:11)-Toyopearl, WQRHGL (SEQ ID NO:9)-Toyopearl, FQRHGI (SEQ ID NO:29)-Toyopearl, and WQRHGV (SEQ ID NO:10)-Toyopearl resins were equilibrated in PBS pH 7.4, reaching a swollen volume of 0.1 mL, and subsequently incubated with 1 mg/mL IgG in PBS at pH 7.4 for 30 minutes. The amount of unbound IgG in the supernatant samples was quantified by Bradford assay and utilized to determine the IgG binding % by the peptide variants.
Characterization of IgG-binding peptide variants WQRHGI (SEQ ID NO:1), MWRGWQ (SEQ ID NO:2), RHLGWF (SEQ ID NO:3), and GWLHQR (SEQ ID NO:4) in competitive conditions: The four selected sequence variants were tested for their ability to purify human IgG from a CHO cell culture supernatant and found largely to mirror their in silico predictions. Even though they seemed to underperform in silico, RHLGWF (SEQ ID NO:3) and GWLHQR (SEQ ID NO:4) were tested alongside WQRHGI (SEQ ID NO:1) and MWRGWQ (SEQ ID NO:2) in these conditions in order to confirm their ability to bind IgG and examine their selectivity as predicted in silico. The feedstock was prepared by spiking human polyclonal IgG into a clarified null CHO-S cell culture fluid to obtain an IgG concentration of 1 mg/mL and a CHO HCP concentration of 0.205 mg/mL. An aliquot of 500 μL was loaded onto each peptide adsorbent in static conditions for 30 min. Following a washing step with PBS to remove loosely bound proteins, a first elution step was conducted using 0.1 M glycine buffer pH 2.5 to remove all bound proteins. Flow through fractions and pH 2.5 elution fractions were loaded neat and analyzed by SDS PAGE (FIGS. 6A-6B). The values of IgG purity in the eluted fractions were determined by densitometric analysis of the corresponding lanes on the gels, and are reported in Table 9.

| Molecule | % Purity (IgG over total proteins) [%] |
| --- | --- |
| RHLGWF | 100.00 |

Same assay, conditions: Gel A, lane R (pH 2.5)

| Molecule | % Purity (IgG over total eluted proteins) [%] |
| --- | --- |
| RHLGWF | 52.28 |

Same assay, conditions: competitive conditions, CHO cell culture supernatant

| Molecule | IgG yield |
| --- | --- |
| RHLGWF | high IgG yield |

Same assay, conditions: competitive conditions, in vitro

| Molecule | selectivity for IgG over HCPs |
| --- | --- |
| RHLGWF | non-selective |

Tested on: host cell protein (HCP)
Experiment: not given
Details: literature value; cited from earlier work

| Molecule | HCP LRV |
| --- | --- |
| Ac-HW[Cit]GWV | 2.07 |

Target: human polyclonal IgG (human)
Experiment: batch incubation of peptide-Toyopearl resin with human IgG, Bradford of unbound IgG; mg IgG bound relative to MWRGWQ
Details: not given

| Molecule | % Binding [%] |
| --- | --- |
| B1 | 97 |
| B2 | 89.2 |
| B3 | 78.4 |
| B4 | 74.7 |
| B5 | 0.48 |
| B6 | 56.8 |
| B7 | 91.5 |
| B8 | 26 |
| B9 | 18.9 |

Target: human polyclonal IgG (human)
Experiment: batch incubation of peptide-Toyopearl resin with human IgG, Bradford of unbound IgG; mg IgG bound relative to WQRHGI
Details: not given

| Molecule | % Binding [%] |
| --- | --- |
| B10 | 96 |
| B11 | 62.8 |
| B12 | 99.1 |
| B13 | 95.4 |
| B14 | 77.4 |
| B15 | 86.9 |
| B16 | 37.2 |
| B17 | 0.95 |

Tested on: human IgG
Experiment: not given
Assay type: binding
Details: peptide on Toyopearl AF-amino-650M, 30 min, room temperature
Method: as §1
A limited library of residue-by-residue changes confirmed the importance of each residue in peptides WQRHGI (SEQ ID NO:1) and MWRGWQ (SEQ ID NO:2) in reducing the binding energy between the peptide and the IgG target. […] This was accomplished by designing and constructing an ensemble of 20 variants of peptides WQRHGI (SEQ ID NO:1) and MWRGWQ (SEQ ID NO:2). Selected residues in positions 1-6 were mutated. The peptide variants were synthesized directly on Toyopearl AF-amino-650M resin via Fmoc/tBu chemistry. The resulting adsorbents were incubated with a solution of human IgG at 2 mg/mL at a ratio of 1 mL of resin per 3.5 mL of solution for 30 min at room temperature. The residual concentration of IgG in solution was determined by Bradford concentration assay of the supernatants and utilized to calculate the amounts of bound IgG per volume of resin; Table 7 reports the % binding, defined as mg IgG bound by variant/mg IgG bound by original sequence (either WQRHGI (SEQ ID NO:1) or MWRGWQ (SEQ ID NO:2))×100%, of each sequence variant.

| Molecule | % Binding (mg IgG bound by variant/mg IgG bound by original sequence × 100%) |
| --- | --- |
| WQRHGV | 96.04% |
| WQ(Cit)HGI (WQ[Cit]HGI) [WQχHGI] | 0.95% |
| (NorL)WRGWQ ([Nle]WRGWQ) [ΛWRGWQ, Λ represents Nor-Leucine] | 74.66% |
| MWRGFQ [MWRGEQ] | 89.19% |
| WNRHGI | 77.43% |
| WQRAGI | 62.80% |
| GWRGWQ | 78.37% |
| MGRGWQ | Undetected |
| WQRHAI | 95.43% |
| FQRHGI | 37.18% |
| WQRHGL | 99.09% |
| MW(Cit)GWQ (MW[Cit]GWQ) [MWχGWQ] | 0.48% |
| MWRGWN | 18.90% |
| MWRWQ | 91.55% |
| MFRGWQ | 56.75% |
| MWRGGQ | 26.00% |
| WQRHI | 86.89% |
| MWRAWQ | 96.96% |
